The values that follow come from paper PMC7392148 (Bioorganic & medicinal chemistry, 2020).

Where only a bound is given, the exact number is not on record here.

One assay concerns panel of 168 GPCRs. The assay is described as follows: PathHunter β-arrestin cell-based assays, antagonist primary screen. The note with it: for antagonistic activity in the primary screen: 20 μM, significant = ≥80% inhibition; for hit rate: from the 168 GPCRs tested; for number of GPCRs antagonized at ≥80% inhibition: primary screen at 20 μM.
The target in a further assay is T1, chemokine receptor CCR3 (Homo sapiens, UniProt P51677).
T1 sequence (P51677 1-355): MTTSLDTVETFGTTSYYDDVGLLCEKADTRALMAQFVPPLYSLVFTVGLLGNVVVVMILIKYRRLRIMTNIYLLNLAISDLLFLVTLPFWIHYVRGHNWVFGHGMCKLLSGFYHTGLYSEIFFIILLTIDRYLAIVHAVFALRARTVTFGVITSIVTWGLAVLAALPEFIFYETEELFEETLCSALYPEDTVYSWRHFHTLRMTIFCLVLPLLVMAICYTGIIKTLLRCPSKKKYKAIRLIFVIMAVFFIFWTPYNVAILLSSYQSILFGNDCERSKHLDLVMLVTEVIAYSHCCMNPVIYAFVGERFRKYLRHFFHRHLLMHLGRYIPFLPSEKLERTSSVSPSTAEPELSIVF
The assay can be described thus: PathHunter β-arrestin antagonist assay. The assay is classed as cell-based.

The target of a further assay is chemokine receptor CCR8 (Homo sapiens, UniProt P51685). The assay can be described thus: PathHunter β-arrestin antagonist assay. It counts as cell-based.
Sequence of chemokine receptor CCR8 (P51685 whole entry): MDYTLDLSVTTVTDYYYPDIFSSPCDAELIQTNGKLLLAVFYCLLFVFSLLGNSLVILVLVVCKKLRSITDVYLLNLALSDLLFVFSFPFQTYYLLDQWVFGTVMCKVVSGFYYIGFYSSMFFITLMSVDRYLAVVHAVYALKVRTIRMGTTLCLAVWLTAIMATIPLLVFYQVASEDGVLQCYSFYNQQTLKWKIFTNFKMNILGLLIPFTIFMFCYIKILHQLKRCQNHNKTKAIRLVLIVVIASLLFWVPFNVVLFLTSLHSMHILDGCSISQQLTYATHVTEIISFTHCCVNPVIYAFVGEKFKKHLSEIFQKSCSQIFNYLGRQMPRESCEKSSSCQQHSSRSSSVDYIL
The target of another assay is T2, CX3CR1 (Homo sapiens, UniProt P49238).
T2 sequence (P49238 1-355): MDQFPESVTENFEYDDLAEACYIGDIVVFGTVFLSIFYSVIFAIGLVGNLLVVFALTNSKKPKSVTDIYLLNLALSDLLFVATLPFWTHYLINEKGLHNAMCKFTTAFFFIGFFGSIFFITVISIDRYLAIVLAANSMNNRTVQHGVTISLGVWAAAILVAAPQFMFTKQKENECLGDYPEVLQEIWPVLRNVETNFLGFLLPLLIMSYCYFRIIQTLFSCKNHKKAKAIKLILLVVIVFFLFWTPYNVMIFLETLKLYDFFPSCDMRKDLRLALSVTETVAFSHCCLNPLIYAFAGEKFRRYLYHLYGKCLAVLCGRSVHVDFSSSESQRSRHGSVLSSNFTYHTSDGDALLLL
The assay can be described thus: PathHunter β-arrestin antagonist assay. The assay is classed as cell-based.

The target of the next assay is CXCR4 (Homo sapiens, UniProt P61073). The assay can be described thus: PathHunter β-arrestin antagonist assay. The assay is classed as cell-based.
Sequence of CXCR4 (P61073 whole entry): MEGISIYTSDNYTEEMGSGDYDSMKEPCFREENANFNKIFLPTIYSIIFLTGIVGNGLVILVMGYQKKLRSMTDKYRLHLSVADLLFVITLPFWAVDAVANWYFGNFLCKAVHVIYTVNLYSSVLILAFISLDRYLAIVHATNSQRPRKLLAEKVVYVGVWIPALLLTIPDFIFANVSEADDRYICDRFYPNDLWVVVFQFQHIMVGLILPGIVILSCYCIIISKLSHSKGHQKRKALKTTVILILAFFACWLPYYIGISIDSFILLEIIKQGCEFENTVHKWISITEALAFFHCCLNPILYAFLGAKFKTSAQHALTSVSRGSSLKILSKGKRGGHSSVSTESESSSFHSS
For assay [1], the target named is T3, 5-hydroxytryptamine (serotonin) receptor (HTR2C) (Homo sapiens, UniProt P28335).
T3 sequence (P28335 33-458): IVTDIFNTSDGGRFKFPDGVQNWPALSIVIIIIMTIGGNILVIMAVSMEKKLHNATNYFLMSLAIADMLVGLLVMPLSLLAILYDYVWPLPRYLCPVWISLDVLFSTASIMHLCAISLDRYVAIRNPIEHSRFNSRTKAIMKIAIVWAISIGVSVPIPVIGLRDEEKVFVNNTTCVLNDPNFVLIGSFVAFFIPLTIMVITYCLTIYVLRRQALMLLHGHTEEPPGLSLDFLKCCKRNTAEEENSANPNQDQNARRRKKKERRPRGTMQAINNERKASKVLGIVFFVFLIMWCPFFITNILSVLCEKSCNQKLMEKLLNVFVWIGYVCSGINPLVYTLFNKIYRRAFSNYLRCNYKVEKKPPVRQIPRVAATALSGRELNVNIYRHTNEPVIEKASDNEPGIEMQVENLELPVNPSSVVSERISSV
The assay is described as follows: PathHunter β-arrestin antagonist assay. The assay is classed as cell-based.

Assay [2] addresses T4, follicle-stimulating hormone receptor (FSHR) (Homo sapiens, UniProt P23945).
T4 sequence (P23945 18-695): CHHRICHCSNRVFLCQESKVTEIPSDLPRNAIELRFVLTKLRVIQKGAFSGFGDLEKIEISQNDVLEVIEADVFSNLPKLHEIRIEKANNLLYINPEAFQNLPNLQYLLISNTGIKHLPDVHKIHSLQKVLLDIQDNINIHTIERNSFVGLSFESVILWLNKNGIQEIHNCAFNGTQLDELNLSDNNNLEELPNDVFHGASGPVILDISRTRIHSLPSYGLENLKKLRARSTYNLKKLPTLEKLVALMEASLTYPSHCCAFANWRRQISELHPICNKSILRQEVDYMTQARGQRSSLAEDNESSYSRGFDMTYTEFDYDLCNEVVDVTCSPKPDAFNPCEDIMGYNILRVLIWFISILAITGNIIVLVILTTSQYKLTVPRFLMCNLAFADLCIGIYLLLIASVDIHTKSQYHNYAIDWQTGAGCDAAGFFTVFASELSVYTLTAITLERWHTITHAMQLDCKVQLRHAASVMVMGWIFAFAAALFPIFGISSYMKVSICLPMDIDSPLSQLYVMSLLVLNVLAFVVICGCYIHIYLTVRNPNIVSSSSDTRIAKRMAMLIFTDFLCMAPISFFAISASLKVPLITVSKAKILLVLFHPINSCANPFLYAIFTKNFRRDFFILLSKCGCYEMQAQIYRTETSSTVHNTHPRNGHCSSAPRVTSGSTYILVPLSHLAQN
The assay is described as follows: PathHunter β-arrestin antagonist assay. It counts as cell-based.

Assay [3] addresses T5, neuropeptide S receptor 1 (NPSR1B) (Homo sapiens, UniProt Q6W5P4).
T5 sequence (Q6W5P4 1-377 isoform Q6W5P4-4): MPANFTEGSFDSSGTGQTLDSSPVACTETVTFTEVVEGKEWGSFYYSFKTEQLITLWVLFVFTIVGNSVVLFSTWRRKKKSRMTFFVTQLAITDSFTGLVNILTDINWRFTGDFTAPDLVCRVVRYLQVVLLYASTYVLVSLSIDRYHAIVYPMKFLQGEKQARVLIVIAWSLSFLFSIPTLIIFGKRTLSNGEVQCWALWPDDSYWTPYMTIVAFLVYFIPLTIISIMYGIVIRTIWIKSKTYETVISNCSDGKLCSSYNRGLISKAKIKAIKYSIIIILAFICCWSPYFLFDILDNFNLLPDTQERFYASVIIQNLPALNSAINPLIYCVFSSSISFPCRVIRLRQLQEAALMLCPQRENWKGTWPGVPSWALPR
The assay can be described thus: PathHunter β-arrestin antagonist assay. The assay is classed as cell-based.

The target in assay [4] is T6, prolactin releasing hormone receptor (PRLHR) (Homo sapiens, UniProt P49683).
T6 sequence (P49683 1-370): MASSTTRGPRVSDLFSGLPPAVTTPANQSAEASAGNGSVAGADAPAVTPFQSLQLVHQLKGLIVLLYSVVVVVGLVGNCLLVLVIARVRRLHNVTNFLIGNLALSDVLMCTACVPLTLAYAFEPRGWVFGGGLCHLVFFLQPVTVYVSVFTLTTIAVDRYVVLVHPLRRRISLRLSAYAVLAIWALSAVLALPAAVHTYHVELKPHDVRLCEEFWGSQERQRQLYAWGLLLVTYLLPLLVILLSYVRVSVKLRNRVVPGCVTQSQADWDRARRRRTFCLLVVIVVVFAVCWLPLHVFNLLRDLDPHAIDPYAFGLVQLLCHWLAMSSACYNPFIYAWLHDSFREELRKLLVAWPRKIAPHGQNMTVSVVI
The assay is described as follows: PathHunter β-arrestin antagonist assay. It counts as cell-based.

Another assay deals with AVPR1A. The assay can be described thus: PathHunter β-arrestin antagonist assay. The assay is classed as cell-based. The note with it: primary screen at 20 μM.
Another assay deals with AVPR1B. The assay can be described thus: PathHunter β-arrestin antagonist assay. It counts as cell-based. The note with it: primary screen at 20 μM.
The subject of assay [5] is dopamine D2b receptor (DRD2L). The assay can be described thus: PathHunter β-arrestin antagonist assay. As to conditions: primary screen at 20 μM. The assay is classed as cell-based.
For assay [6], the system named is hydroxytryptamine receptor (HTR1B). The assay is described as follows: PathHunter β-arrestin antagonist assay. It counts as cell-based. As to conditions: primary screen at 20 μM.
In another assay the test system is ADRA2A. The assay is described as follows: PathHunter β-arrestin antagonist assay. The assay is classed as cell-based. As to conditions: primary screen at 20 μM.
The target of the next assay is AVPR2 (Homo sapiens, UniProt P30518). The assay can be described thus: PathHunter β-arrestin antagonist assay. The assay is classed as cell-based.
Sequence of AVPR2 (P30518 whole entry): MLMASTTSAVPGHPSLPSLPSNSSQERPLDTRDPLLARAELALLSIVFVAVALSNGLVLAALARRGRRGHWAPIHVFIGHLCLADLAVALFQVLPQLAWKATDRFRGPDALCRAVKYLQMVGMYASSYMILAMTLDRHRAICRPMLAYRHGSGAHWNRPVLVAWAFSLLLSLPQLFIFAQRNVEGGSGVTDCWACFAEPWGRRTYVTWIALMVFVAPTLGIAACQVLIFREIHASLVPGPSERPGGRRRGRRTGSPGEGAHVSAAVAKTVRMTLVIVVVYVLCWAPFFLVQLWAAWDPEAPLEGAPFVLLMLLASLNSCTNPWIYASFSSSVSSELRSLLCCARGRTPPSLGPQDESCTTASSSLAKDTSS
Another assay has as its target T7, oxytocin receptor (OXTR) (Homo sapiens, UniProt P30559).
T7 sequence (P30559 1-389): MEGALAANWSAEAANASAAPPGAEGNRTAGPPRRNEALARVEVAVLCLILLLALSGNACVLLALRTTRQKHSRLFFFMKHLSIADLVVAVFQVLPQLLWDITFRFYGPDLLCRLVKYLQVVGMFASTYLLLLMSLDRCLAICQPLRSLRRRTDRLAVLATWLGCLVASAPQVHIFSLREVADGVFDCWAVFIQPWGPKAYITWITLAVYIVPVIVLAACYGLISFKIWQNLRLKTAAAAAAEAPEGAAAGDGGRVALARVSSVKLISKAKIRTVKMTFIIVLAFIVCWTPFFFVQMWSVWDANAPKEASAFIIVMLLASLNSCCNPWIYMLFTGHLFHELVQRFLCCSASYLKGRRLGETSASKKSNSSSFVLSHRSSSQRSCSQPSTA
The assay is described as follows: PathHunter β-arrestin antagonist assay. It counts as cell-based.

For orientation: inhibition means the percentage by which the read-out fell short of the control. Lower therefore signals little suppression. `COC(=O)[C@@H]1[C@H]2C[C@@H](c3[nH]c4ccccc4c3CCn3cc(-c4cccc(Cl)c4)nn3)N(C#N)C[C@@H]2CC[C@@H]1O` [Y1f]: the “antagonistic activity in the primary screen” value in the assay with panel of 168 GPCRs is given as “significant inhibitory activities”. In the assay on panel of 168 GPCRs, this molecule gave a hit rate of 3.0%. Further, the “number of GPCRs antagonized at ≥80% inhibition” value with panel of 168 GPCRs is listed as “five”. Further, the inhibition at 20 µM (on chemokine receptor CCR3; against chemokine receptor CCR8; on CX3CR1; against CXCR4; in assay [1]) was no less than 80% in each case.

Turning to `COC(=O)[C@@H]1[C@H]2C[C@@H]([C@@]3(CCn4cc(CCCCO)nn4)C(=O)Nc4ccccc43)N(C#N)C[C@@H]2CC[C@@H]1O` [Y2e], the “antagonistic activity in the primary screen” value with panel of 168 GPCRs is “inactive”.

Regarding `COC(=O)[C@@H]1[C@H]2C[C@@H]3N(CC[C@@]34C(=O)N(c3cncc(OC)n3)c3ccccc34)C[C@@H]2CC[C@@H]1O` [Y3h], the “antagonistic activity in the primary screen” value in the assay on panel of 168 GPCRs was “inactive”.

Consider `COC(=O)[C@@H]1[C@H]2C[C@@H]3OCc4ccccc4-n4c3c(c3ccccc34)CCN(C#N)C[C@@H]2CC[C@@H]1O` [Y4a], for which the “antagonistic activity in the primary screen” value in the assay on panel of 168 GPCRs was “inactive”.

Regarding `COC(=O)[C@@H]1[C@H]2C[C@H]3OCc4ccccc4-n4c3c(c3ccccc34)CCN(C#N)C[C@@H]2CC[C@@H]1O` [Y5a], the “antagonistic activity in the primary screen” value in the assay on panel of 168 GPCRs is “inactive”.

On to `COC(=O)[C@@H]1[C@H]2C[C@@H](OCc3ccc(Br)cc3)c3[nH]c4ccccc4c3CCN(C#N)C[C@@H]2CC[C@@H]1O` [Y6p], for which, in the assay on panel of 168 GPCRs, the “antagonistic activity in the primary screen” value is given as “significant inhibitory activities”, the hit rate was determined as 2.4% and the “number of GPCRs antagonized at ≥80% inhibition” value is given as “four”. Moreover, the inhibition at 20 µM in [2] was no less than 80%. The inhibition at 20 µM in assay [3] is no less than 80%. In [4], the inhibition at 20 µM was no less than 80%.

For the molecule `COC(=O)[C@@H]1[C@H]2C[C@@H]3N(CC[C@@]34C(=O)N(Cc3cccc(OC)c3)c3ccccc34)C[C@@H]2CC[C@@H]1OCc1cccc(OC)c1` [Y7g], the “antagonistic activity in the primary screen” value with panel of 168 GPCRs is “significant inhibitory activities”. Also, the hit rate with panel of 168 GPCRs came to 2.4%. Also, the “antagonistic activity in the GPCR screen” value is listed as “inhibited” in the assay with AVPR1A; “inhibited” in the assay on AVPR1B; “not inhibited” in assay [5]; “not inhibited” in assay [6]; “not inhibited” with ADRA2A.

`COC(=O)[C@@H]1[C@H]2C[C@H]3c4[nH]c5ccccc5c4CCN3C[C@@H]2CC[C@@H]1O` [yohimbine, reference compound]: the inhibition at 20 µM against AVPR2 and against oxytocin receptor (OXTR) was no more than 5% each time. Also, the “antagonistic activity in the GPCR screen” value in assay [5] and in assay [6] was “inhibited” in each case.
